Structures can show the parent of a compound that is named as a salt.
What was measured:
5-HT2C receptor = target: T1, 5-HT2C receptor (Homo sapiens, UniProt P28335); settings: cited from earlier work
T1 sequence (P28335 33-458): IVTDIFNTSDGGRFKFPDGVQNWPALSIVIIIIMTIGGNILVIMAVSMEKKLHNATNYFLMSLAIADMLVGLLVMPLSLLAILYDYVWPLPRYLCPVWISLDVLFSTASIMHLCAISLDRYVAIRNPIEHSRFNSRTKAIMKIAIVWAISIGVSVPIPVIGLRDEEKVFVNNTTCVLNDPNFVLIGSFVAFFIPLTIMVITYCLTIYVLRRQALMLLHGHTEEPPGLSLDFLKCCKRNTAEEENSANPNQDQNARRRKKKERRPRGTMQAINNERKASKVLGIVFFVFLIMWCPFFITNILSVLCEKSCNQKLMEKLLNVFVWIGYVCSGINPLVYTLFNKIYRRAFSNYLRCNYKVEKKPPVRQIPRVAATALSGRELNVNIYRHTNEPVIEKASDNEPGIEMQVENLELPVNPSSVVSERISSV

5-HT2 receptors = settings: cited from earlier work

Row | Structure (SMILES) | melting point | further results
1 | CCc1nn(C[C@H](C)N)c(CC)c1S(=O)(=O)c1ccc(N2CCCC(C)(C)C2=O)cc1.Cl | 131 °C | 
2 | CCc1nn(CCNC)c(CC)c1Sc1ccc(F)cc1.O=C(O)/C=C\C(=O)O | 95 to 97 °C | 
3 | CCc1nn(CC(C)(C)N)c(CC)c1Sc1ccc(F)cc1.O=C(O)/C=C\C(=O)O | 120 to 122 °C | 
4 | CCc1nn(C(C)CN)c(CC)c1Sc1ccc(F)cc1.O=C(O)/C=C\C(=O)O (stereo not drawn) | 162 °C | 
5 | Cc1nn(CCN)c(C)c1Sc1ccccc1 (as salt: HCl) [Example 2, 2-[3,5-dimethyl-4-(phenylsulfanyl)-1H-pyrazol-1-yl]ethylamine] | 185 to 188 °C | 
6 | CCc1nn(C(C)C(N)=O)c(CC)c1Sc1ccc(F)cc1 (stereo not drawn) (as salt: hydrochloride) | 167 °C | 
7 | CCc1nn(CCN)c(CC)c1Sc1nnnn1C (as salt: salt) [Example 204] | 148 °C | 
8 | CCc1nn(CCN)c(CC)c1Sc1nccc(C(F)(F)F)n1 (as salt: salt) [Example 205] | 154 °C | 
9 | CCc1nn(CCNC)c(CC)c1S(=O)(=O)c1ccc(N2C(=O)CC(C)(C)C2=O)cc1 [Example 160, 1-[4-({3,5-diethyl-1-[2-(methylamino)ethyl]-1H-pyrazol-4-yl}sulfonyl)phenyl]-3,3-dimethyl-2,5-pyrrolidinedione] | 84 to 86 °C | 
10 | Cc1cc2c(cc1Cl)N(C(=O)Nc1ccc(Oc3cccnc3C)nc1)CC2 [SB-242084] |  | selectivity as 5-HT2C receptor antagonist (5-HT2C receptor): at least 100 fold
11 | Cc1nc2sccn2c(=O)c1CCN1CCC(=C(c2ccc(F)cc2)c2ccc(F)cc2)CC1 [ritanserin] |  | pKi for the 5-HT2 receptors (5-HT2 receptors): 8.9; selectivity for the 5-HT2 receptors over 5-HT, receptors (5-HT2 receptors): 10,000 fold

Source: US20050119489A1, “4-Sulfide/sulfoxide/sulfonyl-1h-pyrazolyl derivative compounds, for use in diseases associated with the 5-ht2c receptor” (priority 2001, published 2005)
